Reference: PMC9673804, “Design, synthesis and antitumor evaluation of novel pyrazolo[3,4-d]pyrimidines incorporating different amino acid conjugates as potential DHFR inhibitors” (Journal of Enzyme Inhibition and Medicinal Chemistry, 2022)
pIC50: −log10 of the molar value. “And” between values parts separate entries of the source, which are not always exact repeats. Equal values may be shown once.

What was measured:
human DHFR enzyme = target: T1, human DHFR enzyme (Homo sapiens, UniProt P00374); assay: Elisa assay of human DHFR enzyme; assay type: biochemical
T1 construct: purchased MyBioSource MBS9312476
T1 sequence (P00374 1-187): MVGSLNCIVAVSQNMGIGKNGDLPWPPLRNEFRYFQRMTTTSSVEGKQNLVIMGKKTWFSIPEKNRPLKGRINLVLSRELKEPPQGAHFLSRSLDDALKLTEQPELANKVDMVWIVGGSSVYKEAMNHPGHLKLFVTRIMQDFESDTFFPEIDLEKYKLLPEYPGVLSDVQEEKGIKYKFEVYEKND
Procedure: Enzyme-linked immunosorbent assay (ELISA) assay technique was used to evaluate the anti-DHFR effects of all the synthesised compounds on as described previously. The DHFR ELISA kit (MyBioSource, MBS9312476 San Diego, CA, USA) was used according to the manufacturer instructions. […] The test was repeated in triplicate, and the significance was assessed by one-way ANOVA test followed by Tukey’s posttest, where p < 0.05 was considered significance.

DHFR = assay: Western blot of DHFR expression in MCF-7; assay type: cell-based, human
Procedure: (§1) The effect of compound 7f on the expression of DHFR, Casp3, Bax, and Bcl-2 proteins in MCF-7 cancer cells was evaluated by western blotting as previously performed. The cancer cells treated or untreated were collected were harvested and blotted on SDS-polyacrylamide gel and separated by Cleaver electrophoresis unit (Cleaver, UK), transferred onto polyvinylidene fluoride (PVDF) membranes (Millipore, USA) for 30 min using a Semi-dry Electroblotter (Biorad, USA) at 2.5 A and 25 V for 30 min. […] After washing, the chemiluminescent Western ECL substrate (Perkin Elmer, Waltham, MA, USA) was applied to the blot and then incubated for 1 min with a mixture of equal volumes from ECL solution A and ECL solution B. The chemiluminescent signals were captured using a CCD camera-based imager (Chemi Doc imager, Biorad, USA), and the bands intensities were then measured by Image J software program. […] For colorimetric assays two-way ANOVA test followed by Bonferroni posttest were used, while for quantification expression on western blot, student-t-test was used (significance p < 0.05). […]
(§2) Sodium dodecyl sulfate polyacrylamide gel electrophoresis (SDS-PAGE) is used to separate proteins based on their size. […] The secondary antibody is typically linked to an enzyme that produces luminescence upon the reaction with its substrate. […]

caspase 3 = assay: Western blot of caspase-3 expression in MCF-7; assay type: cell-based, human
Procedure: as §1, §2

Bax [1] = assay: Western blot of Bax expression in MCF-7; assay type: cell-based, human
Procedure: as §1, §2

Bcl-2 = assay: Western blot of Bcl-2 expression in MCF-7; assay type: cell-based, human
Procedure: as §1, §2

Bax [2] = assay: Bax ELISA in MCF-7; assay type: cell-based, human; settings: ½ IC50, IC50, 2×IC50, dose dependent
Procedure: The apoptotic effect of compound 7f on breast cancer cell line MCF-7 were evaluated by quantification of Bax, caspase 3/7, and Bcl-2 using Bax ELISA Kit ab199080 (ABCAM, Cambridge, UK), Caspase-Glo 3/7 assay kits (Promega, Fitchburg, MA, USA), and Bcl-2 ELISA Kit ab119506 (ABCAM, Cambridge, UK), according the instructions of manufacturers[11]^,[14]. The cells were treated with compounds 7f (½ IC50, IC50, or 2 ×IC50), and the activities were shown as a percentage change from the untreated control. The experiments were performed in triplicate applying two-way ANOVA test followed by Bonferroni posttest to evaluate the significance (p < 0.05).

With N=C(N)NCCCC(NC(=O)c1ccc(Nc2ncnc3c2cnn3-c2ccccc2)cc1)C(=O)O (centres unmarked) [Compound 7f, 5-Guanidino-2-{4-[(1-phenyl-1H-pyrazolo[3,4-d]pyrimidin-4-yl)amino]benzamido}pentanoic acid] the pIC50 (human DHFR enzyme; DHFR ELISA kit, triplicate) was > 6.00 and 6.51, the inhibition at 0.1 µM (human DHFR enzyme; conc 0.1 uM) was 44% and the inhibition at 1 µM (human DHFR enzyme; conc 1 uM) was 66%. The inhibition at 10 µM (human DHFR enzyme; conc 10 uM) was 86%, the inhibition at 100 µM (human DHFR enzyme; conc 100 uM) was 94% and the “western blotting OD DHFR” value (DHFR; MCF7 cells, Cont.MCF7 0.808) was 0.346 OD. For the same compound, the “DHFR expression (western blot)” value (DHFR; MCF-7 cancer cell line) was “significantly diminished the DHFR expression”, the “western blotting OD Casp3” value (caspase 3; MCF7 cells, Cont.MCF7 0.171) was 0.575 OD and the “expression of caspase 3 (western blot)” value (caspase 3; MCF-7) was “significantly increased the expression”. For the same compound, the “western blotting OD Bax” value (Bax [1]; MCF7 cells, Cont.MCF7 0.152) was 0.346 OD, the “expression of Bax (western blot)” value (Bax [1]; MCF-7) was “significantly increased the expression” and the “western blotting OD Bcl2” value (Bcl-2; MCF7 cells, Cont.MCF7 0.762) was 0.501 OD. The “expression of Bcl-2 (western blot)” value (Bcl-2; MCF-7, compound at IC50) was “significantly down-regulated the expression of Bcl-2” and the “release of Bax protein” value (Bax [2]) was “significantly surge the release”.
